According to US20250222120A1, “SYNTHESIS OF NOVEL SMALL MOLECULE CARM1 DEGRADERS, COMPOUNDS FORMED THEREBY, AND PHARMACEUTICAL COMPOSITIONS CONTAINING THEM” (Wisconsin Alumni Research Foundation, priority 2024, published 2025):

Biological target: T1, PRMT1 (Homo sapiens, UniProt Q99873)
T1 construct: we performed a global quantitative proteomic analysis of MCF7 cells using mass spectrometry; endogenous in cells; host or cells: MCF7
Assay: Global proteomics of MCF7 cells, PRMT1 level
Type: cell-based
Conditions: 25 nM, 4 h, versus DMSO
Protocol: Sample preparation for global proteomics analysis. Sample preparation is similar to the previous report (Ma et al. “Strategy Based on Deglycosylation, Multiprotease, and Hydrophilic Interaction Chromatography for Large-Scale Profiling of Protein Methylation” Anal. Chem. 2017, 89 (23), 12909-12917). Briefly, treated MCF7 cells were harvested by washing with PBS buffer (Gibco, pH 7.4) and lysed in RIPA buffer supplemented with protease inhibitors for 20 min, then protein concentration was determined using a BCA Protein Assay Kit (Thermo Pierce, Rockford, IL) per manufacturer instructions. […] The concentrations of the peptide mixture were measured by peptide assay (Thermo Fisher Scientific). […]
LC-MS/MS data acquisition. Samples were analyzed on an Orbitrap Fusion Lumos Tribrid mass spectrometer (Thermo Fisher Scientific) coupled to a Dionex UltiMate 3000 UPLC system. […]
Data analysis. Protein identification and quantification by MaxQuant (version 1.5.3.8) based database searching, using the integrated Andromeda search engine with FDR <1% at peptide and protein levels. […] For label-free protein quantification (LFQ), the MaxQuant LFQ algorithm was used to quantitate the MS signals, and the proteins' intensities were represented in LFQintesnit (Schaab et al. “Analysis of High Accuracy, Quantitative Proteomics Data in the MaxQB Database” Mol. Cell. Proteomics 2012, 11 (3), M111.014068). […]

T1 sequence (Q99873 whole entry): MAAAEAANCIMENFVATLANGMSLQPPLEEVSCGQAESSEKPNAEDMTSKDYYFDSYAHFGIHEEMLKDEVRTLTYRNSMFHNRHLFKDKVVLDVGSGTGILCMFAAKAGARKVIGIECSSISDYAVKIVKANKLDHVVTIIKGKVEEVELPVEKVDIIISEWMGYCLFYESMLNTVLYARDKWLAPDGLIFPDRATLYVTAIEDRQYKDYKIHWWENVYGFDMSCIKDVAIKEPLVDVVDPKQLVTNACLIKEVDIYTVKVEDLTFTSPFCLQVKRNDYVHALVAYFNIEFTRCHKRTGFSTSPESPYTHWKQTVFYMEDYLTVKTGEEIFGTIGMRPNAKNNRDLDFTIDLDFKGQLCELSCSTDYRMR

CNCCN1CCC(c2cc(CN(C)C(=O)c3cccc(Oc4ccc(OCC(=O)N5CCC(CN6CCC(CN7CCN(CC(=O)N[C@H](C(=O)N8C[C@H](O)C[C@H]8C(=O)N[C@@H](C)c8ccc(-c9scnc9C)cc8)C(C)(C)C)CC7)CC6)CC5)cc4)c3)ccn2)CC1 [Compound 3b, (2S,4R)-1-((S)-3,3-dimethyl-2-(2-(4-((1-((1-(2-(4-(3-(methyl((2-(1-(2-(methylamino)ethyl)piperidin-4-yl)pyridin-4-yl)methyl)carbamoyl)phenoxy)phenoxy)acetyl)piperidin-4-yl)methyl)piperidin-4-yl)methyl)piperazin-1-yl)acetamido)butanoyl)-4-hydroxy-N—((S)-1-(4-(4-methylthiazol-5-yl)phenyl)ethyl)pyrrolidine-2-carboxamide]
PRMT1 protein level in proteomics: not significantly changed
